According to PMC6731595, “The anti-parasitic agent suramin and several of its analogues are inhibitors of the DNA binding protein Mcm10” (Open Biology, 2019):
“Also recorded” adds a separate entry of the source. Counter-ions that a name gives are not always drawn. Like-named read-outs stand apart in the source and are kept apart here.

Tests used:
[1] = biological target: T1, human Mcm10 internal domain (hMcm10-ID) (Homo sapiens, UniProt Q7L590); experiment: Fluorescence polarization competition assay, displacement of 5′-6FAM 10-mer ssDNA probe from hMcm10-ID; format: binding; settings: mean ± s.e.m., n ≥ 3; hMcm10-ID 1 μM, probe 12.5 nM
T1 construct: hMcm10-ID (residues 237 to 436) were expressed in E. coli strain BL21(DE3); 6xHis (HRV 3C site) (N, cleaved yes); made in house; host or cells: E. coli BL21(DE3)
T1 sequence (Q7L590 237-436): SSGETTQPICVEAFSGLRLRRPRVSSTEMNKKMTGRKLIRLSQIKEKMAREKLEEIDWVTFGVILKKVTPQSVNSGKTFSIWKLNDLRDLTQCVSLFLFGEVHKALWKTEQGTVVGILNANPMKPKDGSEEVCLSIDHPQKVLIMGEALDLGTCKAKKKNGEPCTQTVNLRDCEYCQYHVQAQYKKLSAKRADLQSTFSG
Description: (§1) A fluorescence polarization (FP) HTS assay was established to detect inhibitors of the binding of the 5′-6FAM 10-mer oligo probe to Mcm10. Test compounds dissolved in DMSO were added to 384-well plates (Corning 4514) using an Echo 550 acoustic dispenser (final DMSO 0.1%) to achieve a final single point screening concentration of 10 µM. Then 10 µl of 2× Xenopus internal domain Mcm10 (xMcm10-ID, final concentration 2 µM) in binding buffer (20 mM Tris HCl, 100 mM NaCl, 5% glycerol, and 0.01% triton, pH 7.5) was added using the Combi nL Multidrop dispenser. Finally, 10 µl of 2× 5′-6FAM DNA (final 12.5 nM) in binding buffer was added using the Multidrop. DMSO (0.1%, high signal) and probe only (low signal) controls were included on every plate. Plates were mixed for 2 min, incubated for 60 min at RT in the dark, and read on a CLARIOstar multimode plate reader (excitation: 482-16, emission: 530-40, dichroic filter: LP504).
(§2) The LOPAC pilot screen identified the sulfhydryl reagent 4-chloromercuribenzoic acid as an inhibitor in the fluorescence polarization (FP) assay. As there was no known Mcm10 inhibitor, 4-chloromercuribenzoic acid (30 μM) was used as a positive control on initial screening plates. Following the discovery of suramin as a Mcm10 inhibitor, suramin (7 μM) was used as a positive control on subsequent screening plates. To confirm activity, screening hits were tested in dose response experiments (8 concentrations in duplicate) using xMcm10-ID. Similar dose response experiments were conducted with suramin and its analogs to confirm activity for hMcm10-ID (1 μM) and xMcm10-FL (2 μM) and to determine selectivity relative to RPA70AB (0.4 μM). Saturation experiments for each protein were conducted using increasing concentrations of protein with a fixed probe concentration (12.5 nM). FP was measured in mP units, and ∆mP values for each well were calculated as the difference between the measured mP and the average of the “probe only” controls. […] The parallel and perpendicular mP values were also used to calculate total fluorescence intensity (TFI) determined by the sum of parallel mP + (2 x perpendicular mP). TFI was used to detect fluorescence interference by compounds [1]. […] IC50 values were calculated using the four parameter logistic equation in Prism 6.0 (GraphPad). Ki values were obtained using an online Ki calculator according to the equations of Nikolovska-Coleska (http://sw16.im.med.umich.edu/soft-ware/calc_ki/). KD values were calculated using the one site or two site binding equations in Prism 6.0 (GraphPad).

[2] = biological target: T2, human RPA70AB (A and B DNA binding domains of RPA70) (Homo sapiens, UniProt P27694); experiment: Fluorescence polarization competition assay, displacement of 5′-6FAM ssDNA probe from RPA70AB; settings: for selectivity for hMcm10 over RPA70AB: FP; for Ki: predominant low-affinity (or only) component, mean ± s.e.m., n ≥ 3, read-out: fluorescence polarization hRPA70AB Ki2; for selectivity RPA/ hMcm10: ratio of hRPA70AB Ki2 to hMcm10-ID Ki (FP)
T2 construct: recombinant human RPA70AB (181-422) in a pSV281 vector; 6xHis (TEV site) (N, cleaved yes); made in house; host or cells: Escherichia coli BL21(DE3)
T2 sequence (P27694 181-422): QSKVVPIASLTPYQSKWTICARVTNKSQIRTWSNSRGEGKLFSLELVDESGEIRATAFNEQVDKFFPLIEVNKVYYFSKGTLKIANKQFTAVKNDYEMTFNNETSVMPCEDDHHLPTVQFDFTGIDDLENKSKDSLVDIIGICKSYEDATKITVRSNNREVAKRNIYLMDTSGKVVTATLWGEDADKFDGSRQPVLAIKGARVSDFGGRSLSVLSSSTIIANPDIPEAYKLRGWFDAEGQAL
Description: as §1, §2

[3] = biological target: T3, hMcm10-ID (Homo sapiens, UniProt Q7L590); experiment: Surface plasmon resonance binding kinetics on immobilized hMcm10-ID (Biacore S200); settings: for surface plasmon resonance hMcm10-ID kd / kon: 25°C; for kon: read-out: surface plasmon resonance hMcm10-ID ka; for SPR binding kinetics (description of sensorgrams): immobilized hMcm10-ID
T3 construct: hMcm10-ID (residues 237 to 436) were expressed in E. coli strain BL21(DE3); 6xHis (HRV 3C site) (N, cleaved yes); made in house; host or cells: E. coli BL21(DE3)
T3 sequence (Q7L590 237-436): T1 sequence (Q7L590 237-436)
Description: SPR experiments were performed using a Biacore S200 (GE Healthcare) equipped with a research-grade CM5 sensor chip. hMcm10-ID, at a concentration of 15 µg ml^−1 in 10 mM sodium acetate, pH 4.5, […], using an amine coupling kit (GE Healthcare) to either flow cell 2 or 4 following manufacturer directions. The reference flow cell (either flow cell 1 or 3) was left untreated. All compounds were dissolved in running buffer (10 mM PBS, 150 mM NaCl, 0.005% P20, pH 7.4) prior to injection over the chip surface at a flow rate of 30 µl min^−1 and at a temperature of 25°C. Zero concentration samples were injected for double referencing. Data were collected at a rate of 40 Hz and were fitted to a simple 1 : 1 interaction model (unless otherwise noted) using the global data analysis within the Biacore S200 evaluation software.

[4] = biological target: T3, hMcm10-ID; experiment: ABA injection SPR competition experiment with NF023 on hMcm10-ID; format: binding; settings: competitor at 1× KD with NF023 at 10× KD (50 μM)
Description: To explore this possibility, competition-based SPR experiments were conducted using the ABA injection method to determine if the slow binder iso-PPADS competes with the fast kinetic compound NF023 (figure 4). ABA injection allows solution A (NF023 at 10× its KD) to be injected over the surface with solution B (NF023 + competitor at 1× KD) in the same cycle. Competitive binding should result in little or no change in binding response between the A and B injections, whereas non-competitive binders are expected to produce an additive binding response.
For ABA competition SPR experiments, the CM5 chip surface was prepared as described in Materials and Methods. Solution A was prepared with 50 μM NF023 in running buffer while solution B was prepared with the competitor near its KD value (NF023 = 5 μM, suramin = 0.5 μM, and iso-PPADS = 30 μM) ± 50 μM NF023 in running buffer. Data were collected at a rate of 40 Hz and analyzed with the Biacore S200 Evaluation Software. For these experiments, hMcm10-ID was immobilized to the chip surface and NF023 at a concentration 10-fold higher than its KD. A running buffer control was performed to establish the baseline of the experiment. When buffer and NF023 were injected as solution B, there was a small decrease in RU due to slight buffer mismatch effects (Figure 5a). […] NF023, suramin, and iso-PPADS were chosen as competitors to be tested at concentrations equal to their respective KD values as determined by SPR.

[5] = calculated from association and dissociation rate constants, 1:1 model, 6000–8000 RU, read-out: surface plasmon resonance hMcm10-ID kinetic KD

Row | Ki [1] [µM] | selectivity for hMcm10 over RPA70AB [2] | Ki [2] [µM] | selectivity RPA/ hMcm10 [2] | surface plasmon resonance hMcm10-ID kd ([3]; 1:1 model, 6000–8000 RU) [s^−1] | kon ([3]; 1:1 model, 6000–8000 RU) [M⁻¹ s⁻¹] | Kd [3, 5] [µM] | SPR binding kinetics (description of sensorgrams) [3] | SMILES | competition with NF023 for binding to hMcm10-ID (ABA SPR) [4] | Kd ([3]; 3000 RU of hMcm10-ID immobilized, read-out: SPR kinetic KD at lower surface density) [µM]
1 | 18 ± 2 | greater than 50 fold | > 1000 | >56 | 0.0015 ± 0.0001 | 47 ± 8 | 40 ± 9 | slow on- and off-rates | Cc1nc(/N=N/c2cc(S(=O)(=O)O)ccc2S(=O)(=O)O)c(COP(=O)(O)O)c(C=O)c1O [iso-PPADS, pyridoxalphosphate-6-azophenyl-2’, 5’-disulfonic acid tetrasodium salt] | neither compound showed additive binding | –
2 | 0.17 ± 0.02 | more than 10 fold | 1.9 ± 0.1 | 11 | 0.0032 ± 0.0001 | 7400 ± 600000 | 0.46 ± 0.05 | predominantly rapid kinetics | O=C(Nc1cccc(C(=O)Nc2cc(C(=O)Nc3ccc(S(=O)(=O)O)c4cc(S(=O)(=O)O)cc(S(=O)(=O)O)c34)ccc2F)c1)Nc1cccc(C(=O)Nc2cc(C(=O)Nc3ccc(S(=O)(=O)O)c4cc(S(=O)(=O)O)cc(S(=O)(=O)O)c34)ccc2F)c1 [NF157] | – | –
3 | 1.8 ± 0.2 | – | 11 ± 1 | 6 | 1.6 ± 0.2 | 360000 ± 2e+09 | 4.7 ± 0.8 | rapid association and dissociation | O=C(Nc1cccc(C(=O)Nc2ccc(S(=O)(=O)O)c3cc(S(=O)(=O)O)cc(S(=O)(=O)O)c23)c1)Nc1cccc(C(=O)Nc2ccc(S(=O)(=O)O)c3cc(S(=O)(=O)O)cc(S(=O)(=O)O)c23)c1 [NF023] | consistent with a competitive interaction | –

Row | SMILES | Ki [1] [µM] | selectivity for hMcm10 over RPA70AB [2] | Ki [2] [µM] | selectivity RPA/ hMcm10 [2] | surface plasmon resonance hMcm10-ID kd ([3]; 1:1 model, 6000–8000 RU) [s^−1] | kon ([3]; 1:1 model, 6000–8000 RU) [M⁻¹ s⁻¹] | Kd [3, 5] [µM] | SPR binding kinetics (description of sensorgrams) [3] | competition with NF023 for binding to hMcm10-ID (ABA SPR) [4] | Kd ([3]; 3000 RU of hMcm10-ID immobilized, read-out: SPR kinetic KD at lower surface density) [µM]
4 | Cc1ccc(C(=O)Nc2ccc(S(=O)(=O)O)c3cc(S(=O)(=O)O)cc(S(=O)(=O)O)c23)cc1NC(=O)c1cccc(NC(=O)Nc2cccc(C(=O)Nc3cc(C(=O)Nc4ccc(S(=O)(=O)O)c5cc(S(=O)(=O)O)cc(S(=O)(=O)O)c45)ccc3C)c2)c1 [suramin, suramin sodium salt] | 0.83 ± 0.07 | – | 2.5 ± 0.1 | 3 | 0.16 ± 0.03 | 290000 ± 7e+09 | 0.57 ± 0.06 | predominantly rapid kinetics | neither compound showed additive binding | 0.65
5 | Cc1nc(/N=N/c2ccc(S(=O)(=O)O)cc2S(=O)(=O)O)c(COP(=O)(O)O)c(C=O)c1O [PPADS, pyridoxalphosphate-6-azophenyl-2’, 4’-disulfonic acid tetrasodium salt] | 17 ± 1 | greater than 50 fold | > 1000 | >59 | 0.0013 ± 0.0001 | 29 ± 8 | 57 ± 9 | slow association and dissociation kinetics; also recorded: slow on and off rates | – | –
